Among the data in PubChem BioAssay AID2842 (Southern Research Institute, 2010) are IC90 values, retold here.

The test system of the experiment is M. tuberculosis H37Rv growth inhibition. Description: Mycobacterium tuberculosis H37Rv growth inhibition, putative kinase inhibitor library, confirmatory dose response (AID 2842).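 Further: bacteria incubated one week before Alamar blue readout.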

≈ marks a conversion by molar mass, not a printed value.

`COc1ccccc1C(=O)Nc1nnc(-c2ccc(F)cc2)o1`: the IC90 (commonly the concentration needed for an effect of 90%) was 34.9 µg/mL (≈ 111 µM).
The figure for `O=[N+]([O-])c1cccc(-c2ccc(/C=N/O)o2)c1` is 11.9 µg/mL (≈ 51.1 µM); for `Cc1ccc(C2C(C#N)=C(SCC(=O)Nc3cccc(Cl)c3)NC3=C2C(=O)CCC3)o1` (stereo unspecified) it is 12.1 µg/mL (≈ 26.6 µM).
On to `Cc1ccc(CC(=O)N(CCCn2ccnc2)c2nc3ccccc3s2)c(C)c1`, for which the concentration for an effect of 90% (IC90) was 4.82 µg/mL (≈ 11.9 µM).
With `COc1cccc(/C=N/Nc2nncc(=O)[nH]2)c1O`, the IC90 was 0.43 µg/mL (≈ 1.65 µM).
To `CN1CCc2c(sc(NC(=O)c3ccc([N+](=O)[O-])o3)c2C(N)=O)C1` belongs 10.5 µg/mL (≈ 30.1 µM).
The figure for `Cc1ccc2sc(N(CCCn3ccnc3)C(=O)c3ccco3)nc2c1C` is 0.58 µg/mL (≈ 1.52 µM); for `CCCC(=O)Nc1nnc(-c2cc(C)ccc2C)o1` it is 2.09 µg/mL (≈ 8.06 µM); for `COc1cccc(C(=O)Nc2nc(-c3cccs3)cs2)c1` it is 19.5 µg/mL (≈ 61.5 µM).
To `CC(C)(C)c1csc(Nc2nc3c(F)cccc3s2)n1` belongs 6.52 µg/mL (≈ 21.2 µM); to `CCc1ccc(OCC(=O)Nc2ccc(OC)cc2)cc1`, 12.7 µg/mL (≈ 44.3 µM); to `O=C(Nc1nnc(-c2cccs2)o1)c1ccco1`, 3.41 µg/mL (≈ 13.1 µM).
For the molecule `O=C1C(Cl)=C(Nc2ccccc2O)C(=O)N1c1ccc(Cl)c(Cl)c1`, the IC90 is 0.84 µg/mL (≈ 2.19 µM).
The figure for `CN1CCc2c(sc(NC(=O)c3ccc(C(C)(C)C)cc3)c2C(N)=O)C1` is 12.7 µg/mL (≈ 34.2 µM).
In the case of `COc1cccc2sc(Nc3nc(-c4ccc(Cl)s4)cs3)nc12`, the IC90 was 7.28 µg/mL (≈ 19.2 µM).
For the molecule `CC(C)OC(=O)COc1ccc2cc(-c3ccccc3)c(=O)oc2c1`, the IC90 is 2.97 µg/mL (≈ 8.78 µM).
With `Cc1ccc(C)c(-c2nnc(NC(=O)c3cccc(F)c3)o2)c1`, the IC90 was 30.9 µg/mL (≈ 99.2 µM).
To `O=C(Nc1nnc(-c2ccccc2)o1)c1cc(-c2cccs2)nc2ccccc12` belongs 0.72 µg/mL (≈ 1.81 µM); to `CCOc1ccc2nc(Nc3nc4c(OC)cccc4s3)sc2c1`, 3.75 µg/mL (≈ 10.5 µM).
To `Cc1ccc(Cl)cc1N1CCN(CC(O)COc2ccccc2[N+](=O)[O-])CC1` (stereo unspecified) belongs 13 µg/mL (≈ 32.1 µM).
As to `O=C(Nc1nc(-c2ccc3c(c2)OCCO3)cs1)C1CCCCC1`, the IC90 was 11.7 µg/mL (≈ 34 µM).
In the case of `O=C(/C=C/c1ccccc1Cl)Nc1nnc(C2=COCCO2)o1`, the IC90 was 26.7 µg/mL (≈ 79.9 µM).
To `CC(=O)Oc1cc(C)cc2oc(=O)c3c(c12)CCCC3` belongs 6.79 µg/mL (≈ 24.9 µM); to `Cc1ccc(-n2ncc3c(NCc4cccnc4)ncnc32)cc1C`, 6.03 µg/mL (≈ 18.3 µM); to `Cc1ccc(Cl)cc1N1CCN(CCn2c(C)c(C)n3c4c(=O)[nH]c(=O)n(C)c4nc23)CC1`, 49.7 µg/mL (≈ 106 µM).
The figure for `O=C(Nc1nnc(-c2cc(Cl)ccc2Cl)o1)c1c(F)cccc1F` is 3.48 µg/mL (≈ 9.4 µM); for `CCc1ccc2nc(Nc3nc4ccc(S(C)(=O)=O)cc4s3)sc2c1` it is 7.52 µg/mL (≈ 19.3 µM); for `COC(=O)CSc1ncnc2c1nnn2Cc1ccc(F)cc1` it is 1.55 µg/mL (≈ 4.65 µM).
The figure for `O=C(CS(=O)(=O)c1ccccc1)Nc1cccc2c1C(=O)c1ccccc1C2=O` is 20.9 µg/mL (≈ 51.5 µM).
Take `N=c1nnc2c3ccccc3ccc2n1O`: the 90% effect concentration (IC90) is 41.3 µg/mL (≈ 195 µM).
With `Cc1cc(NC2CCCC2)n2ncc(-c3ccccc3)c2n1`, the IC90 is 9.88 µg/mL (≈ 33.8 µM).
As for `COc1ccc2c(c1)c(=O)c(C(=O)c1ccc(C)cc1)cn2Cc1cccc(C)c1`, the IC90 was 6.97 µg/mL (≈ 17.5 µM).
As for `CSc1ccccc1-c1nnc(NC(=O)c2cc(Cl)sc2Cl)o1`, the IC90 is 11.7 µg/mL (≈ 30.2 µM).
To `COc1ccccc1-c1nnc(NC(=O)CCc2ccccc2)o1` belongs 6.99 µg/mL (≈ 21.6 µM).
To `CSc1cccc(-c2nnc(NC(=O)c3ccc([N+](=O)[O-])s3)o2)c1` belongs 1.58 µg/mL (≈ 4.36 µM); to `CCCCc1ccc2nc(Nc3nc4ccc(S(C)(=O)=O)cc4s3)sc2c1`, 31.8 µg/mL (≈ 76.1 µM); to `N#Cc1ccc(C(=O)Nc2nnc(-c3ccc4c(c3)CCCC4)o2)cc1`, 1.71 µg/mL (≈ 4.97 µM).
To `Cc1ccc2nc(NNC(=O)c3cc4ccccc4oc3=O)sc2c1` belongs 1.75 µg/mL (≈ 4.98 µM); to `O=C(CC(SCc1ccco1)c1cccc([N+](=O)[O-])c1)c1ccco1` (stereo unspecified), < 0.2 µg/mL; to `CC1Cc2cc(-c3nn(-c4ccccc4)cc3/C=C3\SC(=S)NC3=O)ccc2O1` (stereo unspecified), 1.79 µg/mL (≈ 4.27 µM).
With `O=C(Nc1nnc(-c2ccccc2Cl)o1)c1nc2ccccc2s1`, the IC90 was 1.75 µg/mL (≈ 4.9 µM).
The figure for `COc1cccc2sc(Nc3nc4c(F)cccc4s3)nc12` is 14.5 µg/mL (≈ 43.6 µM); for `Cc1ccc2c(c1)C(c1ccccc1)N(C(=O)c1ccc(-c3ccccc3)cc1)CC(=O)N2` (stereo unspecified) it is 5.05 µg/mL (≈ 11.7 µM); for `COc1ccc(-c2nnc3c4cc(OC)c(OC)cc4n(Cc4ccccc4OC)cc2-3)cc1` it is 5.67 µg/mL (≈ 12.4 µM).
The figure for `Cc1cccc(C(=O)Nc2nnc(-c3ccccn3)o2)c1` is 19.3 µg/mL (≈ 68.8 µM).
The figure for `COc1cccc(-c2nnc(NC(=O)c3ccccc3Cl)o2)c1` is 2.69 µg/mL (≈ 8.16 µM).
With `O=C(c1ccco1)N(CCCn1ccnc1)c1nc2ccc(Cl)cc2s1`, the IC90 was 0.89 µg/mL (≈ 2.3 µM).
The figure for `Cc1ccc(C)c(C(=O)Nc2nnc(-c3cc(C)ccc3C)o2)c1` is 2.56 µg/mL (≈ 7.97 µM); for `CCOc1cc(-c2nnc(NC(=O)c3ccccc3Cl)o2)cc(OCC)c1OCC` it is 1.61 µg/mL (≈ 3.73 µM); for `Fc1ccc(N2CCN(c3nc(Nc4ccccc4)c4nccnc4n3)CC2)cc1` it is 1.69 µg/mL (≈ 4.21 µM).
To `Cc1ccccc1NCCCn1c(C)cn2c3c(=O)[nH]c(=O)n(C)c3nc12` belongs 15.4 µg/mL (≈ 41.9 µM).
